According to patent US20200222410A1, “NUCLEOCYTOPLASMIC REGULATOR OF AUTOPHAGY-ASSOCIATED TRANSCRIPTION FACTORS” (BROWN UNIVERSITY, priority 2017, published 2020):
Where “and” joins values, the source holds several entries; their conditions need not be identical. Equal values may be shown once. Entries after “also recorded” stand apart in the source; their conditions may differ.

Assays:
TFEB = assay: TFEB-GFP nuclear localization in HeLa cells; type: cell-based, human; settings: TFEB-GFP-expressing HeLa cells, 1 μM, 6 hours
Description: Cell culture: HeLa cells (ATCC) and HeLa cells expressing TFEB-GFP (S. Ferguson lab) were grown in 6-well plates on a coverslip for 24 hours in DMEM High Glucose (Genesee Scientific) containing 2 mM L-Glutamine, 1% Penicillin-Strep and 10% Fetal Bovine Serum (GenClone). For RNAi experiments, both HeLa cell lines were transfected with Silencer Select siRNA against XPO1 (5 nM) or TFEB (10 nM) or negative control siRNA #2 (Thermo Fisher Scientific) with RNAi Max (Thermo Fisher Scientific) and Opti-MEM (Gibco) for 48 hours. Cells were incubated for another 6 hours with DMSO 0.1%, Torin 1 […], KPT-330, KPT-276, KPT-185 or KPT-335 (1 μM) (Selleckchem). For Lysotracker analysis, cells on coverslips were previously grown with vehicle or compounds (including GSK-3β inhibitor VIII or Leptomycin b (10 nM) for 6 hours followed by a one hour incubation with 100 nM of Lysotracker Red DND-99 (Thermo Fisher Scientific) and live cells were imaged. Coverslips were mounted for imaging onto slides and imaged with a Zeiss Axiovert 200M Fluorescent Microscope. Lysotracker signal was quantified by measuring signal intensity over background of individual cells using ImageJ. For imaging TFEB-GFP signal, cells were fixed in methanol. Nuclear localization was quantified by counting cells that had higher GFP intensity in the nucleus compared to the cytoplasm measured using ImageJ.

HLH-30 = assay: HLH-30::GFP nuclear localization in nematodes (fluorescent microscopy); type: in vivo, C. elegans
Description: The nematode C. elegans is an art-recognized system to identify genetic and pharmacological modifiers of various cellular processes. As such, an unbiased genome-wide RNAi screen for genetic modifiers of the activity of HLH-30/TFEB was performed (FIG. 1B). Specifically, enhancers of HLH-30 nuclear localization were searched for by following the distribution of HLH-30 fused to GFP.
HLH-30-GFP-expressing nematodes were fed HT115 E. coli bacteria transformed with a plasmid containing the L4440 backbone and a portion of the cDNA sequence complementary to the coding sequence of the xpo-1 gene. Nuclear enrichment was measured by fluorescent microscopy after animals were treated from eggs to day 1 of adulthood. The RNAi was based on the cosmid sequence ZK742.1 of the C. elegans genome. The sequence of the RNAi used is:
Fluorescent microscopy imaging: Transgenic worms were mounted on a 2% agarose pad with 0.1% sodium azide and imaged using a Zeiss Discovery V20 fluorescent microscope.
Animals were fed OP50 E. coli with 0.2% of DMSO (vehicle control) or 0.2% DMSO with KPT-330 at 0.2 mM. Nuclear localization of the HLH-30-GFP reporter and survival was measured.

C. elegans [1] = assay: Lifespan analysis of C. elegans; type: in vivo; settings: for lifespan of treated animals compared to vehicle-treated controls: C. elegans wild-type; for % Difference in mean lifespan vs vehicle control / Drug treatment Mean Lifespan: N2 wild-type; for Drug treatment Mean Lifespan: 20° C.
Description: Lifespan analysis: Worms were synchronized by bleaching and eggs were grown on OP50 E. coli during development. Day 1 adults were transferred onto corresponding RNAi plates and kept at 20° C. Mantel-Cox log rank statistical analyses were calculated using Stata 13.0.

C. elegans [2] = assay: Heat stress survival assay (37° C.); type: in vivo; settings: 100 μM
Description: (§1) Proteostasis analyses: Heat shock analyses were performed at 37° C. and scoring survival every hour. Aggregation was visualized by fluorescent microscopy using strains expressing Q35::GFP in muscle (AM140) (Morley et al., 2002, The threshold for polyglutamine-expansion protein aggregation and cellular toxicity is dynamic and influenced by aging in Caenorhabditis elegans. Proc Natl Acad Sci USA 99, 10417-10422) or Q40::YFP in intestine (GF78) (Mohri-Shiomi and Garsin, (2008) Insulin signaling and the heat shock response modulate protein homeostasis in the Caenorhabditis elegans intestine during infection. J Biol Chem 283, 194-201). Aggregate clearance was assayed with a strain (GMC101) (McColl et al., (2012). Utility of an improved model of amyloid-beta (Abeta(1)(−) (4)(2)) toxicity in Caenorhabditis elegans for drug screening for Alzheimer's disease. Mol Neurodegener 7, 57). […]) inducing expression of human Aβ42 at 25° C. Following a 5-day RNAi feeding, paralysis was assayed after 48 hours at 25° C.

mCherry::GFP::LGG-1 = assay: Autophagy analysis with tandem reporter mCherry::GFP::LGG-1 (autophagosome and autolysosome formation); type: in vivo, C. elegans; settings: 50 or 100 μM, visualized after 48 hours
Description: Autophagy analysis: Worms expressing the tandem reporter GFP-mCherry-LGG-1 (Chang et al., (2017). Spatiotemporal regulation of autophagy during Caenorhabditis elegans aging. eLife 6) were treated from L4/day 1 of adulthood and imaged using an LSM 800 Zeiss Confocal Laser Scanning Microscope as previously described (Chang et al., (2017). Spatiotemporal regulation of autophagy during Caenorhabditis elegans aging. eLife 6). To functionally assess the effect of genetically or pharmacologically inhibiting xpo-1 on the autophagic pathway, autophagic flux (i.e. fusion of autophagosome to lysosome) was measured in C. elegans. Several fluorescent reporters of autophagy proteins (including LGG-1/LC3, SQST-1/P62) have been designed to observe and quantify autophagic flux. […] These animals were used to determine the effect of silencing (RNAi) xpo-1 on autophagy using fluorescent microscopy. The accumulation of unique red punctae represents active autolysosome formation, indicative of activated autophagy.

[3] = test system: polyQ-containing protein aggregates; assay: polyQ aggregate formation (Q35::GFP muscle, Q40::YFP intestine); type: in vivo, C. elegans; settings: day 5 animals, 100 μM
Description: as §1

dsodH71Y flies = assay: Lifespan analysis of ALS model in flies (dsodH71Y); type: in vivo, D. melanogaster; settings: for Drug treatment Mean Lifespan: H71Y Sod-1 (dsod) flies, 25° C.; for % Difference in mean lifespan vs vehicle control: H71Y flies
Description: l Lifespan analysis in Drosophila: Measurement of lifespan (25° C.) in dsodH71Y was performed as previously described in the art (Sahin et al., 2017, Human SOD1 ALS Mutations in a Drosophila Knock-In Model Cause Severe Phenotypes and Reveal Dosage-Sensitive Gain- and Loss-of-Function Components. Genetics 205, 707-723). The software Stata 13.0 was used to perform Mantel-Cox log rank statistical analyses.

Structure (SMILES): COc1cc(-c2ncn(/C=C\C(=O)OC(C)C)n2)cc(C(F)(F)F)c1 [KPT-185]
- nuclear localization of TFEB (TFEB): marked increase in nuclear localization of TFEB

Structure (SMILES): O=C(/C=C\n1cnc(-c2cc(C(F)(F)F)cc(C(F)(F)F)c2)n1)N1CC(F)(F)C1 [KPT-276]
- nuclear enrichment of HLH-30 (HLH-30; 25 μM): nuclear enrichment of HLH-30
- lifespan of treated animals compared to vehicle-treated controls (C. elegans [1]): lifespan extension
- % Difference in mean lifespan vs vehicle control (C. elegans [1]; 25 μM): 9.4%
- Drug treatment Mean Lifespan (C. elegans [1]; 25 μM): 23.2 days
- nuclear localization of TFEB (TFEB): marked increase in nuclear localization of TFEB

Structure (SMILES): O=C(/C=C\n1cnc(-c2cc(C(F)(F)F)cc(C(F)(F)F)c2)n1)NNc1cnccn1 [KPT-330, Selinexor]
- nuclear localization of HLH-30 (HLH-30; Day 1 adults, 25, 50 and 100 μM for 72 hours): displayed nuclear localization of HLH-30
- Nuclear localization of HLH-30::GFP (HLH-30; concentrations below 25 μM): not detected
- nuclear localization of HLH-30 (HLH-30; lower concentration (data not shown)): also led to nuclear localization of HLH-30
- nuclear localization of HLH-30 (fused to GFP) (HLH-30; nematodes grown on plates containing 2 mM): led to nuclear localization of HLH-30
- lifespan of treated animals compared to vehicle-treated controls (C. elegans [1]): significant lifespan extension; also recorded: significant increase in the lifespan
- % Difference in mean lifespan vs vehicle control (C. elegans [1]; 25 μM): 12.4% and 13.2%
- Drug treatment Mean Lifespan (C. elegans [1]; 25 μM): 21.7 days and 24 days
- % Difference in mean lifespan vs vehicle control (C. elegans [1]; 50 μM): 9.8% and 17%
- Drug treatment Mean Lifespan (C. elegans [1]; 50 μM): 21.2 days and 24.8 days
- % Difference in mean lifespan vs vehicle control (C. elegans [1]; 100 μM): 14% and 21.7%
- Drug treatment Mean Lifespan (C. elegans [1]; 100 μM): 22 days and 25.8 days
- resistance to heat (C. elegans [2]; day 1 to day 5 of adulthood): improved resistance to heat
- % Difference in heat stress survival vs vehicle control (C. elegans [2]; N2 wild-type, Day 5 of adulthood): 18.5% and 34.7%
- Heat Stress survival (mean, hours) (C. elegans [2]; N2 wild-type, Day 5 of adulthood after 5 days of treatment): 6.4 h and 6.2 h
- Autophagy in pharynx and hypodermal seam cells (mCherry::GFP::LGG-1): enhanced
- formation of polyQ-containing (Q40::YFP) aggregates [3]: reduction in the formation
- Drug treatment Mean Lifespan (dsodH71Y flies; both sexes, 100 μM): 9.8 days and 13.5 days
- Drug treatment Mean Lifespan (dsodH71Y flies; females, 100 μM): 12 days and 16.9 days
- Drug treatment Mean Lifespan (dsodH71Y flies; males, 100 μM): 6.8 days and 6 days
- % Difference in mean lifespan vs vehicle control (dsodH71Y flies; both sexes, 100 μM): 24.0% and 18.4%
- % Difference in mean lifespan vs vehicle control (dsodH71Y flies; females, 100 μM): 26.3% and 27.1%
- overall survivorship compared to control (dsodH71Y flies; dsodH71Y flies fed 100 μM during adulthood): beneficial impact on the overall survivorship
- lifespan of females (dsodH71Y flies; dsodH71Y flies, 100 μM): extended significantly
- nuclear localization of TFEB (TFEB): marked increase in nuclear localization of TFEB

Structure (SMILES): O=C(/C=C\n1cnc(-c2cc(C(F)(F)F)cc(C(F)(F)F)c2)n1)NNc1ccccn1 [KPT-335, Verdinexor]
- nuclear localization of TFEB (TFEB): marked increase in nuclear localization of TFEB
